# PubChem BioAssay (NCI)
#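 Each compound was tested at five concentrations against cells in 96-well plates for 48 hours. Here, GI50 denotes the concentration required for 50% inhibition of growth. TGI is the concentration that stops growth completely.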
# Columns and labels:
# Test in all cases: DTP human tumour cell line panel, 48 h
# SF-268 CNS = tested on: SF-268 CNS
# RXF 393 renal = tested on: RXF 393 renal
# A549 NSCLC = tested on: A549 NSCLC
# HCC-2998 colon = tested on: HCC-2998 colon
# MDA-MB-435 = tested on: MDA-MB-435
# SNB-19 CNS = tested on: SNB-19 CNS
# OVCAR-8 ovarian = tested on: OVCAR-8 ovarian
# NCI-H23 lung = tested on: NCI-H23 lung
# SNB-75 CNS = tested on: SNB-75 CNS
# NCI-H460 lung = tested on: NCI-H460 lung
# K-562 leukemia = tested on: K-562 leukemia
# SK-MEL-5 melanoma = tested on: SK-MEL-5 melanoma
# CCRF-CEM leukemia = tested on: CCRF-CEM leukemia
# SN12C renal = tested on: SN12C renal
# PC-3 prostate = tested on: PC-3 prostate
# SF-295 CNS = tested on: SF-295 CNS
# 786-0 renal = tested on: 786-0 renal
# TK-10 renal = tested on: TK-10 renal
# MALME-3M melanoma = tested on: MALME-3M melanoma
# NCI-H226 lung = tested on: NCI-H226 lung
# OVCAR-3 ovarian = tested on: OVCAR-3 ovarian
# HL-60(TB) leukemia = tested on: HL-60(TB) leukemia
# HS 578T breast = tested on: HS 578T breast
# CAKI-1 renal = tested on: CAKI-1 renal
# SK-MEL-2 melanoma = tested on: SK-MEL-2 melanoma
# MOLT-4 leukemia = tested on: MOLT-4 leukemia
# HT29 colon = tested on: HT29 colon
# SF-539 CNS = tested on: SF-539 CNS
# HCT-116 colon = tested on: HCT-116 colon
# UACC-62 melanoma = tested on: UACC-62 melanoma
# COLO 205 colon = tested on: COLO 205 colon
# ACHN renal = tested on: ACHN renal
# LOX IMVI melanoma = tested on: LOX IMVI melanoma
# SR leukemia = tested on: SR leukemia
# MDA-MB-468 breast = tested on: MDA-MB-468 breast
# NCI-H522 lung = tested on: NCI-H522 lung
# OVCAR-4 ovarian = tested on: OVCAR-4 ovarian
# UACC-257 melanoma = tested on: UACC-257 melanoma
# T-47D breast = tested on: T-47D breast
# MCF7 breast = tested on: MCF7 breast
# KM12 colon = tested on: KM12 colon
# NCI/ADR-RES ovarian = tested on: NCI/ADR-RES ovarian
# HOP-62 NSCLC = tested on: HOP-62 NSCLC
# DU-145 prostate = tested on: DU-145 prostate
# HCT-15 colon = tested on: HCT-15 colon
# BT-549 breast = tested on: BT-549 breast
# MDA-MB-231 breast = tested on: MDA-MB-231 breast
# RPMI-8226 leukemia = tested on: RPMI-8226 leukemia
# SK-MEL-28 melanoma = tested on: SK-MEL-28 melanoma
# OVCAR-5 ovarian = tested on: OVCAR-5 ovarian
# A498 renal = tested on: A498 renal
# EKVX NSCLC = tested on: EKVX NSCLC
# U251 CNS = tested on: U251 CNS
# UO-31 renal = tested on: UO-31 renal
# IGROV1 ovarian = tested on: IGROV1 ovarian
# SW-620 colon = tested on: SW-620 colon
# HOP-92 NSCLC = tested on: HOP-92 NSCLC
# SK-OV-3 ovarian = tested on: SK-OV-3 ovarian
# M14 melanoma = tested on: M14 melanoma
compound,measurement,setting,value
O=C(CSc1nc2ccccc2c(=O)n1-c1ccc(Cl)cc1)Nc1ccc(-c2nc3ccc([N+](=O)[O-])cc3[nH]2)cc1,GI50,SF-268 CNS,4.62 µM
same,TGI,SF-268 CNS,> 100 µM
same,GI50,RXF 393 renal,1.5 µM
same,TGI,RXF 393 renal,3.69 µM
same,GI50,A549 NSCLC,1.88 µM
same,TGI,A549 NSCLC,6.81 µM
same,GI50,HCC-2998 colon,2.95 µM
same,TGI,HCC-2998 colon,15.2 µM
same,GI50,MDA-MB-435,2.98 µM
same,TGI,MDA-MB-435,13.1 µM
same,GI50,SNB-19 CNS,2.33 µM
same,TGI,SNB-19 CNS,8.77 µM
same,GI50,OVCAR-8 ovarian,1.08 µM
same,TGI,OVCAR-8 ovarian,2.75 µM
same,GI50,NCI-H23 lung,1.8 µM
same,TGI,NCI-H23 lung,5.36 µM
same,GI50,SNB-75 CNS,2.03 µM
same,TGI,SNB-75 CNS,8.21 µM
same,GI50,NCI-H460 lung,1.56 µM
same,TGI,NCI-H460 lung,3.9 µM
same,GI50,K-562 leukemia,2.63 µM
same,TGI,K-562 leukemia,> 100 µM
same,GI50,SK-MEL-5 melanoma,3.01 µM
same,TGI,SK-MEL-5 melanoma,11.7 µM
same,GI50,CCRF-CEM leukemia,13.5 µM
same,TGI,CCRF-CEM leukemia,> 100 µM
same,GI50,SN12C renal,1.58 µM
same,TGI,SN12C renal,4.21 µM
same,GI50,PC-3 prostate,1.79 µM
same,TGI,PC-3 prostate,7.01 µM
same,GI50,SF-295 CNS,1.73 µM
same,TGI,SF-295 CNS,4.56 µM
same,GI50,786-0 renal,2.91 µM
same,TGI,786-0 renal,8.4 µM
same,GI50,TK-10 renal,3.61 µM
same,TGI,TK-10 renal,20.5 µM
same,GI50,MALME-3M melanoma,2.18 µM
same,TGI,MALME-3M melanoma,7.44 µM
same,GI50,NCI-H226 lung,1.77 µM
same,TGI,NCI-H226 lung,4.04 µM
same,GI50,OVCAR-3 ovarian,2.53 µM
same,TGI,OVCAR-3 ovarian,7.43 µM
same,GI50,HL-60(TB) leukemia,28.1 µM
same,TGI,HL-60(TB) leukemia,> 100 µM
same,GI50,HS 578T breast,1.6 µM
same,TGI,HS 578T breast,4.57 µM
same,GI50,CAKI-1 renal,12 µM
same,TGI,CAKI-1 renal,> 100 µM
same,GI50,SK-MEL-2 melanoma,1.95 µM
same,TGI,SK-MEL-2 melanoma,5.31 µM
same,GI50,MOLT-4 leukemia,3.21 µM
same,TGI,MOLT-4 leukemia,> 100 µM
same,GI50,HT29 colon,2.83 µM
same,TGI,HT29 colon,11.4 µM
same,GI50,SF-539 CNS,1.9 µM
same,TGI,SF-539 CNS,4.06 µM
same,GI50,HCT-116 colon,2.9 µM
same,TGI,HCT-116 colon,> 100 µM
same,GI50,UACC-62 melanoma,1.76 µM
same,TGI,UACC-62 melanoma,4.78 µM
same,GI50,COLO 205 colon,2.34 µM
same,TGI,COLO 205 colon,6.07 µM
same,GI50,ACHN renal,3.1 µM
same,TGI,ACHN renal,21.2 µM
same,GI50,LOX IMVI melanoma,1.44 µM
same,TGI,LOX IMVI melanoma,3.04 µM
same,GI50,SR leukemia,2.16 µM
same,TGI,SR leukemia,24.1 µM
same,GI50,MDA-MB-468 breast,1.4 µM
same,TGI,MDA-MB-468 breast,3.2 µM
same,GI50,NCI-H522 lung,1.82 µM
same,TGI,NCI-H522 lung,4.65 µM
same,GI50,OVCAR-4 ovarian,1.59 µM
same,TGI,OVCAR-4 ovarian,5.11 µM
same,GI50,UACC-257 melanoma,1.69 µM
same,TGI,UACC-257 melanoma,4.95 µM
same,GI50,T-47D breast,1.41 µM
same,TGI,T-47D breast,3.56 µM
same,GI50,MCF7 breast,1.18 µM
same,TGI,MCF7 breast,5.09 µM
same,GI50,KM12 colon,10.2 µM
same,TGI,KM12 colon,> 100 µM
same,GI50,NCI/ADR-RES ovarian,5.29 µM
same,TGI,NCI/ADR-RES ovarian,> 100 µM
same,GI50,HOP-62 NSCLC,1.26 µM
same,TGI,HOP-62 NSCLC,3 µM
same,GI50,DU-145 prostate,3.79 µM
same,TGI,DU-145 prostate,> 100 µM
same,GI50,HCT-15 colon,2.77 µM
same,TGI,HCT-15 colon,> 100 µM
same,GI50,BT-549 breast,1.84 µM
same,TGI,BT-549 breast,6.61 µM
same,GI50,MDA-MB-231 breast,1.82 µM
same,TGI,MDA-MB-231 breast,4.62 µM
same,GI50,RPMI-8226 leukemia,4.4 µM
same,TGI,RPMI-8226 leukemia,> 100 µM
same,GI50,SK-MEL-28 melanoma,1.72 µM
same,TGI,SK-MEL-28 melanoma,3.87 µM
same,GI50,OVCAR-5 ovarian,2.65 µM
same,TGI,OVCAR-5 ovarian,20.5 µM
same,GI50,A498 renal,3.23 µM
same,TGI,A498 renal,12.9 µM
same,GI50,EKVX NSCLC,1.91 µM
same,TGI,EKVX NSCLC,5.7 µM
same,GI50,U251 CNS,1.59 µM
same,TGI,U251 CNS,3.58 µM
same,GI50,UO-31 renal,30 µM
same,TGI,UO-31 renal,> 100 µM
same,GI50,IGROV1 ovarian,1.87 µM
same,TGI,IGROV1 ovarian,5 µM
same,GI50,SW-620 colon,3.52 µM
same,TGI,SW-620 colon,74.1 µM
same,GI50,HOP-92 NSCLC,1.75 µM
same,TGI,HOP-92 NSCLC,6.07 µM
same,GI50,SK-OV-3 ovarian,2.82 µM
same,TGI,SK-OV-3 ovarian,32.7 µM
same,GI50,M14 melanoma,2.32 µM
same,TGI,M14 melanoma,8.05 µM
